Measured values published in patent US5674909A, “Derivatives of 2-amino-1,2,3,4-tetrahydronaphthalene active on the cardiovascular system” (Zambon Group, priority 1994, dated 1997).

Key:
[1] = system: D1 -like (Rabbit Splenic Artery); experiment: D1-like activity in the Rabbit Splenic Artery (RSA) test; conditions: agonist activity at the peak of the effect; contracted with U46619 0.1 μM
Method: Arterial rings were prepared according to Semeraro et al., Naunyn. Schmied. Arch. Pharmacol., 1990, 342, 539.
The arterial preparations were contracted with U46619 (9,11-di-deoxy-11α,9α-epoxy-methanoprostaglandin F2α) at the submaximal concentration 0.1 μM.
(§1) The tested compounds were cumulatively administered.
(§2) Ref. A was used as reference substance.
(§3) Agonist activity evaluated at the peak of the effect and expressed as potency ratio (EC50 of Ref. A/EC50 of tested compound) is reported in table 2.

[2] = system: spontaneously hypertensive rats; experiment: In vivo antihypertensive activity, i.v., spontaneously hypertensive rats; design: species or system rat (spontaneously hypertensive, Charles River); conditions: 30 nmol/kg i.v. bolus; recorded over 4 hours; basal MBP 190-200 mmHg; Ref. A n = 6, Compound 22 n = 7
Method: Male spontaneously hypertensive rats (Charles River) more than 14 weeks old were used.
Catheters were inserted into the right carotid artery and into the left giugular vein under barbituric anesthesia.
The animals were allowed to recover overnight.
The tested compounds were administered into the left giugular vein by bolus injection.
Control animals were injected with an equal volume of vehicle. The induced effect was continuously recorded over a period of 4 hours.
Basal values of Mean Blood Pressure (MBP) were in the range of 190-200 mmHg.
The antihypertensive activity of compound 22 expressed as MBP reduction compared with the antihypertensive activity of Ref. A is reported in the following table.

[3] = biological target: T1, D2 -like (Rabbit Ear Artery) (Oryctolagus cuniculus, UniProt G1T1Q0); experiment: D2-like activity in the Rabbit Ear Artery (REA) test; design: species or system New Zealand rabbit; conditions: agonist activity at the peak of the effect; electrically stimulated
T1 construct: the central ear artery was dissected into 3 mm long rings; from tissue; host or cells: rabbit central ear artery rings (male New Zealand rabbits), electrically stimulated
Method: Arterial rings were prepared according to the method described by Steinsland et al., Science, 1978, 443, 199, modified as follows. Male New Zealand rabbits weighing 2.5-3 Kg were sacrificed by intravenous injection of an excess of pentobarbital sodium and exsanguinated. The two ears were taken away and the central ear artery was dissected into 3 mm long rings.
These preparations were set up in a 25 ml organ bath containing Krebs solution (mM/l): NaCl 118, KCl 4.7, CaCl2 2.5, MgSO4 1.2, NaHCO3 25, KH2 PO4 1.2, glucose 11.1, equilibrated with 95% 02 -5% CO2 and maintained at 35°±1° C.
Krebs solution was medicated with EDTA (10 μM) to prevent cathecolamine oxydation, desipramine (0.1 μM) and corticosterone (30 μM), to block neuronal and extraneuronal cathecolamine uptake. The preparations were electrically stimulated (10 Hz, 1 msec, 40-80 mA, 500 msec duration) at 5 minutes intervals.
as §1, §2, §3

[4] = Fitton and Benfield, Drugs 1990; cited from earlier work
dopaminergic receptors = conditions: Fitton and Benfield, Drugs 1990; cited from earlier work
D2 receptor = D2 receptor (Rattus norvegicus, UniProt P61169); experiment: biochemical; type: binding, rat (Sprague-Dawley); conditions: [3H]-domperidone 0.3 nM, rat striated membranes, 0.01% BSA, 37° C., 30 minutes; read-out: Affinity [K1 (nM)] towards D2 receptor
Method: (§4) The tissue were homogenized in 50 mM Tris/HCl buffer at pH 7.4 (1:100 w/v).
(§5) The homogenate was centrifuged and the pellet resuspended, recentrifuged and resuspended again in 50 mM Tris/HCl buffer at pH 7.4 containing 120 mM NaCl, 5 mM KCl, 2 mM CaCl2 and 1 mM MgCl2.
Furthermore, bovine serum albumine (BSA) (0.01%) was added.
The mixture was incubated at 37° C. for 30 minutes for each concentration of tested compounds.

D1 receptor = D1 receptor (Rattus norvegicus, UniProt P18901); experiment: biochemical; type: binding, rat (Sprague-Dawley); conditions: [3H]-SCH23390 0.2 nM, rat striated membranes, pH 7.4, 37° C., 20 minutes; read-out: Affinity [K1 (nM)] towards D1 receptor
Method: as §4, §5
The mixture was incubated with different concentrations of the tested compounds at 37° C. for 20 minutes, filtered under vacuum through Whatman GF/C filters and then washed 4 times with 5 ml of 50 mM Tris/HCl buffer (pH 7.4) cooled with ice.

D1 receptor, sequence (P18901 whole entry): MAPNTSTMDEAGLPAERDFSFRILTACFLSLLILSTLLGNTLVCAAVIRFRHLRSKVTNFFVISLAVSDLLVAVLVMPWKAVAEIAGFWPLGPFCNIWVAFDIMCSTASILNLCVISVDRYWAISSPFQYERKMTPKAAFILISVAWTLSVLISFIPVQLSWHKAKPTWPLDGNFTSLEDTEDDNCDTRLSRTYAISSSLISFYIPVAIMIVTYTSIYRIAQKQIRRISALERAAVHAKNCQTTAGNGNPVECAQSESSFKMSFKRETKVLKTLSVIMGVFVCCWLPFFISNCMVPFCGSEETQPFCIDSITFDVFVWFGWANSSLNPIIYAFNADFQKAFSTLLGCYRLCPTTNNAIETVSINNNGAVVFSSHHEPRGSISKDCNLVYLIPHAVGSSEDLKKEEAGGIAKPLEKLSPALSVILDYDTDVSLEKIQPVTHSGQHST
T1 sequence (G1T1Q0 1-443): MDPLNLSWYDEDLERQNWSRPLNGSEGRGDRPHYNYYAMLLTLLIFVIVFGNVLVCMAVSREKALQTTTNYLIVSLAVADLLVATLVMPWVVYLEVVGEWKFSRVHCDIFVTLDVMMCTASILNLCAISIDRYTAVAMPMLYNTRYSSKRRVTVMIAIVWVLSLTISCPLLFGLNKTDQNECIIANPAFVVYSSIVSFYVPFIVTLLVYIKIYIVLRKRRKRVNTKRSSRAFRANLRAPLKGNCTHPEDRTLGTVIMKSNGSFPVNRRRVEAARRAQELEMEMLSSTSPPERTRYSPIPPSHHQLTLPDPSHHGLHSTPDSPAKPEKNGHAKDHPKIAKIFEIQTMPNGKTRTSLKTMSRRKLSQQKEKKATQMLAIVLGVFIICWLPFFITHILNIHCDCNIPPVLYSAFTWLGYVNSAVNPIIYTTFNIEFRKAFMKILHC
D2 receptor, sequence (P61169 whole entry): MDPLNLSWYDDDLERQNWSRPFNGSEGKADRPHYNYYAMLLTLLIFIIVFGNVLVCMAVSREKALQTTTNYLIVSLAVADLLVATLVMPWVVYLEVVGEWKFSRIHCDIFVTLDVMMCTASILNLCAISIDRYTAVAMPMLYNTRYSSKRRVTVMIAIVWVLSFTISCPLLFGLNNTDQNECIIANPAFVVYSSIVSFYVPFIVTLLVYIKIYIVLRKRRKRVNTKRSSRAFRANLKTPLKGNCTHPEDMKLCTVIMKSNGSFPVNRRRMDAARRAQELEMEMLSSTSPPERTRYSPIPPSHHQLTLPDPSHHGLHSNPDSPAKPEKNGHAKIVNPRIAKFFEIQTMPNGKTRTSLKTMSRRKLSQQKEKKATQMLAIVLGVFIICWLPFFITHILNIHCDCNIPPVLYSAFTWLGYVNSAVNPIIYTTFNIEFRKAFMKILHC

SMILES	D1 -like (RSA) potency ratio (EC50 of Ref. A/EC50 of tested compound) [1]	MBP reduction, mean ± S.E. [2] [mmHg]	D2 -like (REA) potency ratio (EC50 of Ref. A/EC50 of tested compound) [3]	absorption when administered by oral route [4]	agonist activity at dopaminergic receptors compared with dopamine (dopaminergic receptors)	Ki (D2 receptor) [nM]	Ki (D1 receptor) [nM]
Br.Br.CCCN(CCCCCCNCCc1ccc(S(C)(=O)=O)cc1)[C@H]1CCc2c(ccc(O)c2O)C1 [Compound 22, (S)-N-propyl-N-[6-[2-(4-methylsulphonylphenyl)ethylamino]hexyl]-5,6-dihydroxy-1,2,3,4-tetrahydro-2-naphthylamine dihydrobromide]	14	-61.7 ± 5.7	3	–	–	–	–
NCCc1ccc(O)c(O)c1 [Dopamine]	–	–	–	not absorbed when administered by oral route	–	–	–
Oc1ccc(CCNCCCCCCNCCc2ccccc2)cc1O [Dopexamine, dopexamine]	–	–	–	not absorbed when administered by oral route	less active than dopamine	–	–
CCCN(CCCCCCNCCc1ccccc1OC)[C@H]1CCc2c(ccc(O)c2O)C1.Cl.Cl [Ref. A, (S)-N-propyl-N-[6-[2-(2-methoxyphenyl)ethylamino]hexyl]-5,6-dihydroxy-1,2,3,4-tetrahydro-2-naphthylamine dihydrochloride, reference compound]	1	-25 ± 1.1	–	–	–	0.8	158
